We go through ten molecules from ChEMBL document CHEMBL1139180, “Design, synthesis, and bioactivity of novel inhibitors of E. coli aspartate transcarbamoylase” (Bioorg Med Chem Lett, 2007).

The assay can be described thus: Inhibition of Escherichia coli ATCase.
In the case of `O=C(CP(=O)(O)O)NC(CO)CO`, it took 12500 µM to reach half-maximal inhibition (IC50). In the case of `CC(O)C(NC(=O)CP(=O)(O)O)C(=O)O` (stereo not given) it was 42 µM; in that of `O=C(CP(=O)(O)O)NC(CO)C(=O)O` (stereo not given), 30 µM. Consider `O=C(CP(=O)(O)O)NC(C(=O)O)C(=O)O`, for which the IC50 (usually the concentration that inhibits the measured activity by half) was found to be 43.5 µM.

As to `O=C(O)C[C@H](NC(=O)CP(=O)(O)O)C(=O)O` [PALA], the IC50 is 0.055 µM.

The molecule `O=C(CP(=O)(O)O)NC(Cc1ccc(O)cc1)C(=O)O` (stereo not given) returned an IC50 of 63 µM. As for `NC(=O)CC(NC(=O)CP(=O)(O)O)C(=O)O` (stereo not given), inhibition was half-maximal at 0.225 µM (IC50). `NC(=O)C(CC(=O)O)NC(=O)CP(=O)(O)O` (stereo not given) showed an IC50 of 0.087 µM. `O=C(CP(=O)(O)O)NC(CCO)C(=O)O` (stereo not given) displayed a half-inhibitory concentration (IC50) of 3.9 µM. Consider `O=C(CP(=O)(O)O)NC(CO)CCO` (stereo not given), for which half-maximal inhibition (IC50) was put at 2900 µM.
